According to patent US20210393745A1, “OLIGOMER EXTENDED INSULIN-FC CONJUGATES AND THEIR MEDICAL USE” (Novo Nordisk A/S, priority 2018, published 2021):

What was measured:
[1] = molecular target: T1, membrane-associated human IR-A (Homo sapiens, UniProt P06213); experiment: Insulin receptor affinity on membrane associated receptors (SPA), IR-A; format: binding; conditions: relative to human insulin
T1 construct: expressed in transfected cells; host or cells: BHK cells, pZem219B vector, plasma membrane preparation
T1 sequence (P06213 28-1370 isoform P06213-2 limits assumed): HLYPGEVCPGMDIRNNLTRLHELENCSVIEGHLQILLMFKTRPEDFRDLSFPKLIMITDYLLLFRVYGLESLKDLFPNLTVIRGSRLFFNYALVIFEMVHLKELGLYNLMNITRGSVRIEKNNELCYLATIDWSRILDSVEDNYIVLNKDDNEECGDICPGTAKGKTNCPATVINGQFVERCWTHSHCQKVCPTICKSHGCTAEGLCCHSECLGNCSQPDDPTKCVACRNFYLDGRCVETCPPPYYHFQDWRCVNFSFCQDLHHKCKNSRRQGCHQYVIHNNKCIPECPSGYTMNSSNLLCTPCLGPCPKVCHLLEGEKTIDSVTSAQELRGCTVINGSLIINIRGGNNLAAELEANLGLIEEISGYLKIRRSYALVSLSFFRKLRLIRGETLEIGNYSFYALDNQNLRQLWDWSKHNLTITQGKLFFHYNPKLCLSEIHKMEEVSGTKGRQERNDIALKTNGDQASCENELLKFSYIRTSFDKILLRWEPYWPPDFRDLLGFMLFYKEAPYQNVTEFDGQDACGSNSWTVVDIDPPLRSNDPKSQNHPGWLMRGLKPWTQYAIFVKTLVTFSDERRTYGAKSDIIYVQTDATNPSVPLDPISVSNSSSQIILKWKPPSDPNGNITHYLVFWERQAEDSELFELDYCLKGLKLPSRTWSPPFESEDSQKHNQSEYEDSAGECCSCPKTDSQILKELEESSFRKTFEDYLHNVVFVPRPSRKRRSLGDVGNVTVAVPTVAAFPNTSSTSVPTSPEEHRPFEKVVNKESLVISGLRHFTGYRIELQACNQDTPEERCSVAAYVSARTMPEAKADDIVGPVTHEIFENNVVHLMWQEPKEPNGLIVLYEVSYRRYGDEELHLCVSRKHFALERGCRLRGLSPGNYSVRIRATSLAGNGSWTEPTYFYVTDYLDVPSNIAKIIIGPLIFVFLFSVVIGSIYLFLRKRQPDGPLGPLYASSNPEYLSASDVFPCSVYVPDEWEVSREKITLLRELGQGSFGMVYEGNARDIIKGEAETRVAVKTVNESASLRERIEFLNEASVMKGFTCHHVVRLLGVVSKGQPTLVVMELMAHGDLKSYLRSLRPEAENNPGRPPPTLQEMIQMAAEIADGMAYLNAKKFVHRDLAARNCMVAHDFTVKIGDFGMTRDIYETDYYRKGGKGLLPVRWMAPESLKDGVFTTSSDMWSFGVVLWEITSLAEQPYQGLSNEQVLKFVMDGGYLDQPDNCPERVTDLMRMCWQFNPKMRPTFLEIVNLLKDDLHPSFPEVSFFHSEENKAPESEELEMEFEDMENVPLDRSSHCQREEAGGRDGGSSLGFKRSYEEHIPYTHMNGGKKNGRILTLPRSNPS
T1 sequence (P06213 763-1382 partner limits assumed): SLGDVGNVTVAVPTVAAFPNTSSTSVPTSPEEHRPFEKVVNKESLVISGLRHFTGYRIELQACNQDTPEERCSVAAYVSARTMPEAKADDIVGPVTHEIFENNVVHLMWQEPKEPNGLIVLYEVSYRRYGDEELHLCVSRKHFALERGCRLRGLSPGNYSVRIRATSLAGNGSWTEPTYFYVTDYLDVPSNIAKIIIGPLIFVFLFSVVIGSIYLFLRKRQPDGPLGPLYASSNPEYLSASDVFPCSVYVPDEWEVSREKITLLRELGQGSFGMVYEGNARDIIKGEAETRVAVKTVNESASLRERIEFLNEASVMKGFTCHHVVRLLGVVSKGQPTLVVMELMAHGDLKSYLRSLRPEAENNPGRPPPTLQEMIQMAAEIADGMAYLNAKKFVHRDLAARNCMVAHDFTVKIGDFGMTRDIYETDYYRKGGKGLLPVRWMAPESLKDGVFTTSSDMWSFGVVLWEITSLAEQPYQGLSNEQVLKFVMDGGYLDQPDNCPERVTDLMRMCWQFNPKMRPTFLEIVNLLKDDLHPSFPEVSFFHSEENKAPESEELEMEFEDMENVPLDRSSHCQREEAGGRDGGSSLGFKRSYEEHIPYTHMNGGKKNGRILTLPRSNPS
Method: (§1) Membrane-associated human IR and IGF-1R are purified from BHK cells stably transfected with the pZem219B vector containing either the human IR-A, IR-B or IGF-IR insert. BHK cells are harvested and homogenized in ice-cold buffer (25 mM HEPES pH 7.4, 25 mM CaCl2 and 1 mM MgCl2, 250 mg/L bacitracin, 0.1 mM Pefablock). The homogenates are layered on a 41% (w/v) sucrose cushion and centrifuged for 75 minutes at 95000 g at 4° C. The plasma membranes are collected, diluted 1:5 with buffer (as above) and centrifuged again for 45 minutes at 40000 g at 4° C. The pellets are resuspended in a minimal volume of buffer and drawn through a needle (size 23) three times before storage at −80° C. until usage. The relative binding affinity for either of the membrane-associated human IR-A, IR-B or IGF-1R is determined by competition binding in a SPA setup. IR assays are performed in duplicate in 96-well OptiPlates (Perkin-Elmer Life Sciences). Membrane protein is incubated with gentle agitation for 150 minutes at 25° C. with 50 pM [^125IA14Y]-human insulin in a total volume of […] assay buffer (50 mM HEPES, 150 mM NaCl, 5 mM MgSO4, 0.01% Triton X-100, 0.1% (w/v) HSA (Sigma A1887), Complete EDTA-free protease inhibitors), 50 μg of wheat germ agglutinate (WGA)-coated PVT microspheres (GE Healthcare) and increasing concentrations of ligand. Assays are terminated by centrifugation of the plate at 2000 rpm for 2 minutes and bound radioactivity quantified by counting on a TopCount NXT (Perkin-Elmer Life Sciences).
(§2) IGF-1R assays are conducted essentially as for the IR binding assays except that membrane-associated IGF-1R and 50 pM [^125I-Tyr31]-human IGF-1 were employed.

[2] = molecular target: T2, membrane-associated human IR-B (Homo sapiens, UniProt P06213); experiment: Insulin receptor affinity on membrane associated receptors (SPA), IR-B; format: binding; conditions: relative to human insulin
T2 construct: expressed in transfected cells; host or cells: BHK cells, pZem219B vector, plasma membrane preparation
T2 sequence (P06213 28-758 limits assumed): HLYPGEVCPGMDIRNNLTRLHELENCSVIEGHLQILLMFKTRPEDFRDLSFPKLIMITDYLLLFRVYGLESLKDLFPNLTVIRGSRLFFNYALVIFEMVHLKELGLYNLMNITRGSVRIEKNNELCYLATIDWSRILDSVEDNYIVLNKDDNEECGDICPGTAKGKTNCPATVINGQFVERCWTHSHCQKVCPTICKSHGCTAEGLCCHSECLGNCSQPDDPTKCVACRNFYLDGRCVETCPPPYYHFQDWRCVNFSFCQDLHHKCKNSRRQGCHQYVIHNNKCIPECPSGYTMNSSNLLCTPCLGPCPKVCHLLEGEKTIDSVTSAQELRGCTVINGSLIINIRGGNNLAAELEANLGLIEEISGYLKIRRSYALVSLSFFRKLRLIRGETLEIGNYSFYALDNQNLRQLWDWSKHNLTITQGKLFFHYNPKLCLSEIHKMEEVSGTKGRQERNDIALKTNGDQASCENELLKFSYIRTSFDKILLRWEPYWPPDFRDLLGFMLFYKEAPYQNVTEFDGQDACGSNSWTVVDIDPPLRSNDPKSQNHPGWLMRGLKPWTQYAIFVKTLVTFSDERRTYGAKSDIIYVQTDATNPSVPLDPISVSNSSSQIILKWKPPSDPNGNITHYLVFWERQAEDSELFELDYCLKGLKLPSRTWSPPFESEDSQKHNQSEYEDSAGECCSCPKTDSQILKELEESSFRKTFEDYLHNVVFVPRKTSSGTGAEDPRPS
T2 sequence (P06213 763-1382 partner limits assumed): as the sequence (P06213 763-1382 partner limits assumed) above
Method: as §1, §2

[3] = Stability study: high-molecular weight products by native size-exclusion chromatography; format: physicochemical; conditions: HMWP %(5° C.) − HMWP %(30° C.), 30 μM, pH 7.4
Method: Samples for stability studies were prepared by weighing out 8-10 mg freeze-dried material. The freeze-dried material was solubilized to […] in a premade solution A (5 mM phophate (pH 7.4), 140 mM NaCl and 70 ppm polysorbate 20). Protein concentration was determined using absorbance at 280 nm using a Nanodrop 2000 (Thermo Fisher Scientific Inc.) and theoretical extinction coefficients. Dilution into solution A was done to reach a final concentration of 30 μM.
Native size-exclusion chromatography was performed on a High-Performance Liquid Chromatography system (Waters Alliance) equipped with a UV/Vis detector (Waters 2489 UV/Vis detector). A Waters XBridge BEH 200 Å, 3.5 μm column with dimensions 7.8×300 mm, kept at 30° C., was used. The mobile phase was 50 mM sodium phosphate (pH 7.0), 50 mM NaCl, 5% isopropyl alcohol (v/v). Injection volume was 5 μL. The flow rate was kept at 0.5 mL/min. Peaks were detected using absorbance at 215 nm and data processing is performed with the EMPOWER 3 software from Waters. Samples were analysed for high molecular weight products (HMWP) by relating the total integral of material eluting before main peak with main monomeric peak. In all chromatograms, full baseline separation was observed. […]
Stability of Fc-insulin analogues was evaluated by comparing purity from anion exchange chromatography and formation of high molecular weight products (HMWP) at 5° C. […]

hFcRn ectodomain = molecular target: T3, hFcRn ectodomain (Homo sapiens, UniProt P55899); experiment: SPR analysis of the binding of hFcRn ECD; conditions: pH 6.0, 25° C., steady-state fitting; read-out: Kn (μM), binding of hFcRn ECD
T3 construct: the hFcRn ectodomain diluted at 4000 nM with 2-fold serial dilutions was injected
T3 sequence (P55899 24-297 limits assumed): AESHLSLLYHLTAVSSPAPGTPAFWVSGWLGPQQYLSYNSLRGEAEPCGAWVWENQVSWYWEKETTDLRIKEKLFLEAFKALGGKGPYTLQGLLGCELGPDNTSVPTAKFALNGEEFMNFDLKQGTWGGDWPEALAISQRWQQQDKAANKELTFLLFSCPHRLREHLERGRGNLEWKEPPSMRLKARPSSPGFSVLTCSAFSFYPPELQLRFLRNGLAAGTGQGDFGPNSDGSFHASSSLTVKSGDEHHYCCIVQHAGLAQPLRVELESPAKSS
T3 sequence (P61769 21-119 partner): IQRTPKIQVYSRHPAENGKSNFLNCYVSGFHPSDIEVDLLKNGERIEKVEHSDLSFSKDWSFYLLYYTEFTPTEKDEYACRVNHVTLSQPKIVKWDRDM
Method: First, the three Insulin-Fc samples diluted at 10 ug/ml and the wild-type hIgG4 Fc (produced in HEK293 cells, i.e. glycosylated) diluted at 30 ug/ml in 10 mM sodium acetate (pH 4.5) (GE Healthcare, catalogue #BR100350) were immobilized on a CMD50L sensor chip (XanTec Bioanalytics GmbH) at spot 2 or 4 at 70-90 RU in each used flow cell via amine coupling with 1×HBS-EP+ (pH 7.4) (GE Healthcare, catalogue #BR-1006-69) used as the running buffer. The wild-type hIgG4 Fc was used as the control sample. In each used flow cell, spots 2, 3 and 4 were activated by 100 mM N-hydroxysuccinimide (NHS) and 400 mM N-ethyl-N′-dimethylaminopropyl carbodiimide hydrochloride (EDC) mixed at equal volume before the immobilization and blocked by 1 M ethanolamine hydrochloride-NaOH (pH 8.5) after the immobilization. NHS, EDC and ethanolamine were obtained from the Amine Coupling Kit, type 2 (GE Healthcare, catalogue #BR100633).
Next, the hFcRn ectodomain diluted at 4000 nM with 2-fold serial dilutions was injected through each used flow cell for 60 sec to allow for binding of the hFcRn ectodomain to the Insulin-Fc conjugates and wild-type hIgG4 Fc samples immobilized on the sensor chip, followed by dissociation for 180 sec. 1×PBS-EP+ (pH 6.0) was used as the dilution buffer for the hFcRn ectodomain and the running buffer in each binding cycle at the flow rate of 30 ul/min. After each binding cycle, the sensor chip was regenerated with a 60 sec injection of 1×PBS-EP+ (pH 7.4) at the flow rate of 30 ul/min. The 1×PBS-EP+ (pH 7.4) buffer was prepared by diluting 0.5 M EDTA (pH 8.0) (Invitrogen, catalogue #15575038) at 3 mM into 1×PBS-P+ (GE Healthcare, catalogue #28995084). The 1×PBS-EP+ (pH 6.0) buffer was prepared by adjusting the pH of the 1×PBS-EP+ buffer from 7.4 to 6.0 using ˜10 M HCl. The affinities (equilibrium dissociation constants, KD) were determined via steady-state fitting of the binding curves using the 1:1 binding model in Biacore 4000 Evaluation Software 1.0 (GE Healthcare).

Substance	hIR-A mem Rel. aff. (%) [1] [%]	hIR-B mem Rel. aff. (%) [2] [%]	Δ HMWP % [3] [%]	Kd (hFcRn ectodomain) [µM]
(A14E, A21G, A22(GQEP)11, A66G, A67Q, A68E, A69K^, A70P, B16H, B25H, B29R, desB30 human insulin)/(226A, 227G, 228P, 234A, 235K, 297E, 315Q, 384Q, des447 hIgG4-Fc(226-447))3,5-bis[(2-acetyl)amino]benzoyl Conjugate [Example 5.2]	1.27	1.26	−0.63	1.6
(A14E, A21G, A22(GQEP)12, A70K^, A71P, B25H, B29R, desB30 human insulin)/(226A, 227G, 228P, 234A, 235K, 297E, 315Q, 384Q, des447 hIgG4-Fc(226-447))3,5-bis[(2-acetyl)amino]benzoyl Conjugate [Example 5.1]	2.97	3.05	−2.17	1.5
